Assay results as given in US20230241126A1 (priority 2022, published 2023).

Experiments:
[1] = tested on: Vero 76 cells
[2] = tested on: SARS-CoV-2; type: cell-based; conditions: 1-hour contact time at 22 ± 2° C.; versus virus control titer 5.0

CCO [Ethanol]
Toxicity (highest dilution of the endpoint titer where full (80-100%) cytotoxicity was observed) [1]: None
LRV (log reduction value) [2]: >4.3
